Entries after “also recorded” stand apart in the source; their conditions may differ.
How the values were obtained:
[1] = tested on: ferrets; assay: Apomorphine-induced emesis in ferrets; format: in vivo, ferret
Procedure: (§1) The method used to test antiemetic activity preclinically follows that described by Gardner et al. (Brit. J. Pharmacol., 116: 3158-3163, 1995) and uses ferrets.
(§2) Sixty minutes before administration of the test substance, ferrets are placed in individual stainless steel cages (40×50×34 cm) with a grid floor. Then, the animals are challenged with apomorphine (0.25 mg/kg s.c.), morphine (0.4 mg/kg i.p.) or cisplatin (10 mg/kg i.p.) and immediately observed over at least a 2-hour period. Parameters recorded include: number of ferrets showing retches and vomits; latency to first retching; latency to first vomiting; number of retches; vomiting (number of vomits); number of emesis periods and mean duration of emesis periods. Retching is defined as a rhythmic respiratory movement against a closed glottis, while vomiting is defined as a forced expulsion of upper gastrointestinal contents.
Where apomorphine is used as the emetogen, amisulpride (or vehicle) was administered subcutaneously (s.c. 30 minutes before administration of apomorphine). Animals (6 per group) were treated with vehicle or amisulpride at 1, 10, or 100 μg/kg given sub-cutaneously. The observation period was 2 hours after apomorphine administration.

[2] = tested on: ferrets; assay: Morphine-induced emesis in ferrets; format: in vivo, ferret
Procedure: as §1, §2
Where morphine is used as the emetogen, amisulpride (n=6 per group) or vehicle (n=6) is administered intravenously 5 minutes before the administration of morphine. The observation period is 2 hours after administration of the morphine.

[3] = tested on: ferrets; assay: Cisplatin-induced emesis in ferrets; format: in vivo, ferret
Procedure: as §1, §2
Where cisplatin is used as the emetogen, amisulpride (n=6 per group) or vehicle (n=6) is administered intravenously at least 5 minutes before the administration of cisplatin. The observation period is up to 72 hours, which allows effects on early and late phase emesis to be observed.
More specifically, data are reported from an experiment in which the observation period was 3 hours following cisplatin challenge. Cisplatin induced the occurrence of retches and vomits in 7 and 5 of 9 animals tested respectively. The mean incidences were 79.8±22.2 retches, 3.0±1.1 vomits and 10.7±2.8 emetic periods. Retches and vomits occurred after 85 minutes 6 seconds±7 minutes 53 seconds and 86 minutes 39 seconds±10 minutes 28 seconds respectively amisulpride was given at 0.2, 0.6, 2 and 6 mg/kg. At 0.2 mg/kg the incidence of retches was 23.3±10.8 (a 71% decrease in mean value), of vomits 0.2±0.2 (a 93% decrease) and emesis periods 3.7±2.0 (a 65% decrease). At 0.6 mg/kg the incidence of retches was 62.5±59.0, vomits 1.3±1.1 and emesis periods 3.7±1.3. […] At 2.0 mg/kg the incidence of retches was 3.3±2.5, vomits 0.2±0.2 and emesis periods 0.5±0.3. […] At 6 mg/kg the incidences were 11.7±3.8 retches, 1.2±1.0 vomits and 3.7±1.3 emesis periods.
As indicated above, droperidol is a known agent for the treatment of PONV.

[4] = tested on: patients undergoing routine surgery; assay: Phase IIa study of prophylaxis of post-operative nausea and vomiting; format: in vivo, human; conditions: single dose at the time of the operation; 24-hour period post-operation
Procedure: A formulation of the invention was prepared, suitable for intravenous administration. It is a 2.5 mg/ml citrate-buffered solution (nominal pH 5.0) of amisulpride. The composition is given below.
The effects of amisulpride are studied in patients undergoing routine surgery in a randomised, controlled, open-label phase IIa study of efficacy of a single dose as prophylaxis of post-operative nausea and vomiting. The primary endpoint is the incidence of nausea and vomiting in the 24-hour period post-operation. The drug is administered at the time of the operation. The secondary endpoints are the nausea and vomiting rates and severity (measured separately) over 0-2 hours, 2-6 hours and 6-24 hours post-operation. In addition, the use of rescue medication and safety/adverse events, are recorded.

[5] = tested on: dog; conditions: cited from earlier work
[6] = UKPAR Special Warnings and Precautions for Use; cited from earlier work
[7] = amisulpride 1 μg/kg s.c. 30 minutes before apomorphine 0.25 mg/kg s.c., 2 hour observation
[8] = amisulpride 3 mg/kg i.v. before morphine, 2 hour observation
[9] = amisulpride 6 mg/kg i.v. before morphine
[10] = amisulpride 6 mg/kg i.v. before morphine, 2 hour observation
[11] = amisulpride 12 mg/kg i.v. before morphine, 2 hour observation
[12] = amisulpride 0.2 mg/kg, 3 hours observation
[13] = amisulpride 0.6 mg/kg, 3 hours observation
[14] = amisulpride 2.0 mg/kg, 3 hours observation
[15] = amisulpride 6 mg/kg, 3 hours observation

**Q.** Which “number of emesis periods” value [1, 7] does the source give for `CCN1CCCC1CNC(=O)c1cc(S(=O)(=O)CC)c(N)cc1OC` (centres unmarked) [Amisulpride] here?
**A.** Its value is 1.5±0.6.

**Q.** And the number of retches [1, 7]?
**A.** Its number of retches is 6.0±2.2.

**Q.** What about the number of vomits [1, 7] of the same compound?
**A.** The number of vomits was 0±0.

**Q.** And the “inhibition of apomorphine emesis” value ([1]; amisulpride 10 μg/kg s.c.)?
**A.** The value was “totally inhibited”.

**Q.** What about the “inhibition of apomorphine emesis” value ([1]; amisulpride 100 μg/kg s.c.) of the same compound?
**A.** The value was “totally inhibited”.

**Q.** What about the number of retches ([2]; amisulpride 3 mg/kg i.v. 5 minutes before morphine 0.4 mg/kg i.p., 2 hour observation) of the same compound?
**A.** The number of retches was 28.7±7.1.

**Q.** And the incidence of vomits [2, 8]?
**A.** The incidence of vomits was “abolished the incidence of vomits”.

**Q.** What about the “number of emesis periods” value [2, 8] of the same compound?
**A.** The value was 5.2±1.4.

**Q.** And the “decrease in emesis periods vs control” value [2, 9]?
**A.** The value was 56%.

**Q.** What about the “decrease in retches vs control” value [2, 9] of the same compound?
**A.** The value was ~50%.

**Q.** What about the “decrease in vomits vs control” value [2, 9] of the same compound?
**A.** The value was 72%.

**Q.** What about the “number of emesis periods” value [2, 10] of the same compound?
**A.** Its value is 3.3±1.1.

**Q.** And the number of retches [2, 10]?
**A.** Its number of retches is 17.8±6.8.

**Q.** What about the number of vomits [2, 10] of the same compound?
**A.** Its number of vomits is 0.5±0.3.

**Q.** What about the “number of emesis periods” value [2, 11] of the same compound?
**A.** Its value is 5.7±1.5.

**Q.** And the number of retches [2, 11]?
**A.** The number of retches was 31.7±11.2.

**Q.** And the number of vomits [2, 11]?
**A.** The number of vomits was 0.8±0.4.

**Q.** And the “effect on emetic effects induced by morphine vs vehicle control” value ([2]; i.v., 2 hour observation)?
**A.** The value was “reduces the emetic effects induced by morphine, in dose-dependent manner”.

**Q.** And the incidence of retches ([3]; amisulpride 0.2 mg/kg i.v. before cisplatin 10 mg/kg i.p., 3 hours observation)?
**A.** Its incidence of retches is 23.3±10.8.

**Q.** What about the “decrease in emesis periods vs control” value [3, 12] of the same compound?
**A.** Its value is 65%.

**Q.** What about the “decrease in mean retches vs control” value [3, 12] of the same compound?
**A.** The value was 71%.

**Q.** And the “decrease in vomits vs control” value [3, 12]?
**A.** Its value is 93%.

**Q.** What about the emesis periods [3, 12] of the same compound?
**A.** The emesis periods was 3.7±2.0.

**Q.** What about the incidence of vomits [3, 12] of the same compound?
**A.** The incidence of vomits was 0.2±0.2.

**Q.** And the “efficacy compared with droperidol” value ([3]; amisulpride 0.6 mg/kg (one animal excluded) and 2 mg/kg vs droperidol 3 mg/kg given 5 minutes before cisplatin)?
**A.** Its value is “better than droperidol at 3 mg/kg; also recorded: more effective than droperidol at 3 mg/kg”.

**Q.** And the emesis periods [3, 13]?
**A.** The emesis periods was 3.7±1.3.

**Q.** What about the incidence of vomits [3, 13] of the same compound?
**A.** The incidence of vomits was 1.3±1.1.

**Q.** What about the incidence of retches ([3]; amisulpride 0.6 mg/kg, 3 hours observation, one animal had an early, exaggerated response) of the same compound?
**A.** The incidence of retches was 62.5±59.0.

**Q.** What about the emesis periods [3, 14] of the same compound?
**A.** The emesis periods was 0.5±0.3.

**Q.** And the incidence of retches [3, 14]?
**A.** The incidence of retches was 3.3±2.5.

**Q.** What about the incidence of vomits [3, 14] of the same compound?
**A.** The incidence of vomits was 0.2±0.2.

**Q.** What about the emesis periods [3, 15] of the same compound?
**A.** The emesis periods was 3.7±1.3.

**Q.** What about the incidence of retches [3, 15] of the same compound?
**A.** The incidence of retches was 11.7±3.8.

**Q.** What about the incidence of vomits [3, 15] of the same compound?
**A.** Its incidence of vomits is 1.2±1.0.

**Q.** And the “effect on emetic effects of cisplatin vs vehicle control” value ([3]; i.v., 72 hour period, early and late stages)?
**A.** The value was “reduces the emetic effects of cisplatin, in dose-dependent manner”.

**Q.** And the “effect on nausea, vomiting and retching associated with PONV” value [4]?
**A.** The value was “demonstrate the effect of amisulpride against the nausea as well as the vomiting and retching associated with PONV”.

**Q.** What about the “effect on apomorphine-induced vomiting” value [5] of the same compound?
**A.** Its value is “inhibit apomorphine-induced vomiting in the dog”.

**Q.** And the “effect on QT interval” value [6]?
**A.** The value was “induces a dose dependent prolongation of the QT interval”.
